One data set in a line: physchem. As to conditions: pH 7.4, aqueous buffer, thermodynamic from solid. The procedure:
The test concentration was 100 μM (0% of DMSO for test compounds, 1% of DMSO for reference compounds). The test system was a 100 mM phosphate buffer (pH 7.4). Sample size was duplicates (n=2) and the bioanalytical method was LC-UV (Agilent-1200). Mobile phase A: H2O-1% TFA, B: MeOH-1% TFA; column Boston Symmetrix ODS-H (2.1×50 mm, 5 μm); LC conditions 0.4 mL/Min.
Assay Procedure • 1. For reference compounds: • Add 8 μL of 10 mM DMSO stock solution into 792 μL of 100 mM phosphate buffer (n=2). Final conc.=100 μM (1% of DMSO)
For test compounds: • Add 8 μL of 10 mM DMSO stock solution into the tubes (n=2). • Dry the samples under nitrogen. • Add 800 μL of 100 mM phosphate buffer into the tubes. Final conc.=100 μM (0% of DMSO) • 2. Sample tubes are shaken for 1 hour (1000 rpm) at room temperature and 37° C. • 3. Samples are centrifuged (10 min-12000 rpm) to precipitate un-dissolved particles. • 4. Supernatants are transferred to new tubes • 5. Concentrations of the supernatants after centrifugation are determined by LC-UV detection.

The target of another data set is T1, JAK3 (Homo sapiens, UniProt P52333).
T1 construct: purchased Invitrogen, Madison, Wis
T1 sequence (P52333 1-1124): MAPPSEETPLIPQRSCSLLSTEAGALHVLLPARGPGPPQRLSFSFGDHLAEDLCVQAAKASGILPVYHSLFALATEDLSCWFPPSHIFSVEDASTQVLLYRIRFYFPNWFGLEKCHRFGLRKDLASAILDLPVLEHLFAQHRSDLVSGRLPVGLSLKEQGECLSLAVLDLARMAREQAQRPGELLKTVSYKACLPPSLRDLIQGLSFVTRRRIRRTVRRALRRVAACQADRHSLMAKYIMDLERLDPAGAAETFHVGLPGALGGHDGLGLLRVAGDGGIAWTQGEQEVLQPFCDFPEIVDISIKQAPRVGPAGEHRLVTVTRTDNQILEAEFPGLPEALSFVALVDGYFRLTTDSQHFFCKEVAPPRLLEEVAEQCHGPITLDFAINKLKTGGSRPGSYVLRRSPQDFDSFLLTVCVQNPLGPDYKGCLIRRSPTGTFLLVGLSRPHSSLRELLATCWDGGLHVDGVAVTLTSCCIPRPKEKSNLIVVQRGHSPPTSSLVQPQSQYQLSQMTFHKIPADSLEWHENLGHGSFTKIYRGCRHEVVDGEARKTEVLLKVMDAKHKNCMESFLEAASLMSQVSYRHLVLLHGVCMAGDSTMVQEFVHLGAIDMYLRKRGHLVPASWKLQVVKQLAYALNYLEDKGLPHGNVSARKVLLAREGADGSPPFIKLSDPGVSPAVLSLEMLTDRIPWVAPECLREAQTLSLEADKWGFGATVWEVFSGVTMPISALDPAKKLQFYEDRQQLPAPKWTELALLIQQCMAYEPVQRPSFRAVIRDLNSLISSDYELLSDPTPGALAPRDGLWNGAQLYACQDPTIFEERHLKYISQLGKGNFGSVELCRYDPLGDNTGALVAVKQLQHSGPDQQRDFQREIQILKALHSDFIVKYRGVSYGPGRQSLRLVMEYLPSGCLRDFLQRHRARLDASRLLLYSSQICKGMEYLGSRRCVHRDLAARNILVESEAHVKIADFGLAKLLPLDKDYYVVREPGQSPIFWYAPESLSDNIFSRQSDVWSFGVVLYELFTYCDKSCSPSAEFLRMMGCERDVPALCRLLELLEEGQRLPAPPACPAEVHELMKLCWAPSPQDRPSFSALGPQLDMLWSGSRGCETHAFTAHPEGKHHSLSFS
The data set is described as follows: JAK3 enzymatic activity assay (Z'-LYTE Biochemical Kinase Assay, 2 hr preincubation at 4° C.). Particulars: cell free, 1% DMSO, read-out: JAK3 activity cell free (2 hr preincubation at (4° C.) Kj). The procedure:
The assays were performed according to manufacturer's protocols, except that prior to the kinase reaction they were pre-incubated for 2 hours at 4° C., in order to be able to assay for time-dependent inhibition.
In addition to the compound, each 10 μL JAK3 kinase reaction contained 0.43-1.89 ng JAK3 and 2 μM peptide substrate in 50 mM HEPES (pH 7.5), 0.01% BRIJ-35, 10 mM MgCl2 and 1 mM EGTA. The kinase reaction was allowed to proceed for 1 hour.

The subject of data set [1] is Interleukin 4/STAT6-STAT6-bla RA1. Put plainly: Interleukin 4/STAT6-STAT6-bla RA1 inhibition (IL-4-stimulated STAT6 activity in Ramos cells). The class given is cell-based. As to conditions: Homo sapiens, Ramos; Table 1, 6th column; read-out: Cell based IL4 stimulation IC50. The procedure: The inhibition of Interleukin 4/STAT6-STAT6-bla RA1 (activated by IL-4) by several compounds was determined using the Screening Protocol and Assay Conditions (Invitrogen, Madison, Wis.). The assays were performed according to manufacturer's protocols. Example 4, Cell-line Specific Protocols IL-4-stimulated STAT6 activity in Ramos cells for details.
Mechanism-based inhibition assays using compound 7A (Table 1) were performed using GeneBLAzer® Technology (Invitrogen Corporation), according to manufacturer specifications. […] In this state, excitation of the coumarin results in fluorescence resonance energy transfer to the fluorescein moiety and emission of green light. […] Excitation of the coumarin in the presence of Beta-lactamase activity results in a blue fluorescence signal. […]
An activator assay screen was run to obtain the EC80 concentration of the known activator to add in step 3. • 1. […] 4 μL of the EC80 concentration of activator, as determined in an Activator assay, was added to all wells containing compound and known inhibitor to bring the final assay volume to 40 μL. • 4. […] The assay plate was read on a fluorescence plate reader (Tecan Safire) and the data is analyzed. […]
STAT6-bla RA1 cells were thawed. […] The plate was read on a fluorescence plate reader.

Consider 5 molecules from patent US8937065B2, “Compositions and methods for modulating a kinase” (Clevexel Pharma, priority 2011, dated 2015).

Values after ≈ are worked out from the molar mass of the structure shown.

By solubility is commonly meant the dissolved amount per volume that the medium holds. Usually IC50 stands for the concentration that inhibits the measured activity by half.

For the molecule `O=C(CN1CCOCC1)Nc1cccc(-c2nc(-c3c[nH]c(C(=O)N4CCCC4)c3)cs2)c1` [7A (sample 1), 2-morpholino-N-(3-(4-(5-(pyrrolidine-1-carbonyl)-1H-pyrrol-3-yl)thiazol-2-yl)phenyl)acetamide], the solubility at 1 h was 5.9 µM (≈ 2.75 µg/mL) in the data set “physchem” (Solubility (μM) Mean) and below 10 µM in “physchem” (Solubility in PBS).

On to `Cl.O=C(CN1CCOCC1)Nc1cccc(-c2nc(-c3c[nH]c(C(=O)N4CCCC4)c3)cs2)c1` [9X (sample 2), 2-morpholino-N-(3-(4-(5-(pyrrolidine-1-carbonyl)-1H-pyrrol-3-yl)thiazol-2-yl)phenyl)acetamide hydrochloride salt], for which the solubility at 1 h is 51.9 µM in the data set “physchem” (Solubility (μM) Mean) and 10 to 80 µM in the data set “physchem” (Solubility in PBS).

Take `O=C(c1cc(-c2csc(-c3ccccc3)n2)c[nH]1)N1CCCC1` [11A]: the Ki at JAK3 fell in the range of 1100 to 10000 nM. Further, in data set [1], the IC50 is 110 to 1000 nM.

Regarding `CC(=O)N1CCN(c2ccc(OCC3COC(Cn4ccnc4)(c4ccc(Cl)cc4Cl)O3)cc2)CC1` (stereo not shown) [Ketoconazole, reference compound], the solubility at 1 h in “physchem” (Solubility (μM) Mean) and in the data set “physchem” (Solubility in PBS) was 15.9 µM (≈ 8.45 µg/mL) throughout.

Regarding `CC(C)NCC(O)COc1cccc2ccccc12` (stereo not shown) [Propranolol, reference compound], the solubility at 1 h in the data set “physchem” (Solubility (μM) Mean, kinetic solubility, 100 mM phosphate buffer (pH 7.4), test concentration 100 μM, n=2, LC-UV) is above 100 µM; in “physchem” (Solubility in PBS, 100 mM phosphate buffer pH 7.4, test concentration 100 μM), around 100 µM (≈ 25.9 µg/mL).
